According to US20240294498A1, “FACTOR XIIA INHIBITORS” (Lunac Therapeutics Ltd, priority 2021, published 2024):

Assays:
Format in all cases: biochemical
FXIIa = target: T1, FXIIa (Homo sapiens, UniProt P00748); experiment: Determination of Factor XIIa inhibition (chromogenic substrate S-2302); conditions: human FXIIa alpha, Ki category
T1 construct: FXIIa alpha
T1 sequence (P00748 373-615 limits assumed): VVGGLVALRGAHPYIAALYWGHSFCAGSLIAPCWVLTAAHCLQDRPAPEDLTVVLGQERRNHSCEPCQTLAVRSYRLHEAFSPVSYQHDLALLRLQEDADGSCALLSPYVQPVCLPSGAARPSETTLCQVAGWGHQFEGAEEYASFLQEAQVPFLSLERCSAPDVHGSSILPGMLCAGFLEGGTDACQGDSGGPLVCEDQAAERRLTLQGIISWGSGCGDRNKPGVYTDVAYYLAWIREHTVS
T1 sequence (P00748 20-372 partner limits assumed): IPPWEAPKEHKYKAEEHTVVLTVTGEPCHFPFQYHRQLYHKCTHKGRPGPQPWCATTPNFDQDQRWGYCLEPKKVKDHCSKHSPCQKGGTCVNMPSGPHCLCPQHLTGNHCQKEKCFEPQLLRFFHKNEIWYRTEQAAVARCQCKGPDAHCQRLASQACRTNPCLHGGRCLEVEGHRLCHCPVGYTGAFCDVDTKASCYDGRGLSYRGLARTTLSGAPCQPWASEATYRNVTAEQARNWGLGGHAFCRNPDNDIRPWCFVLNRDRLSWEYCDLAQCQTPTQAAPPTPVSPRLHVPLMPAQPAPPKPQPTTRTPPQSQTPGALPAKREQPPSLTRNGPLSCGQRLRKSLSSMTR
Description: (§1) The activities of the compounds of the invention have been determined in vitro using the following assays protocols for the screening of activity of FXIIa and other proteases. Each of these assays were performed in a purified system employing the use of chromogenic assays in microplate plate wells. Chromogenic peptide substrates mimicking natural protein substrates are attached via an amide bond to a chromogenic group. Paranitroaniline (pNA) is released from the peptide following catalyses by the proteolytic enzyme; the absorbance increases and can be monitored at 405 nm.
(§2) All compounds were dissolved in 100% (v/v) DMSO to a stock concentration of 10 mM, the highest concentration of compound used in each assay is 500 μM. The final concentrations of DMSO were 5% (v/v) in 50 mM Tris 137 mM NaCl pH 7.4. Where no test compound was added a final concentration of 5% DMSO was employed.
Factor XIIa activity was measured using a chromogenic substrate S-2302 (Chromogenix). Various concentrations of compound were incubated with 10 nM of FXIIa and incubated at 37° C. for 10 minutes in 50 mM Tris, 137 mM NaCl, pH 7.4, prior to the addition of the chromogenic substrate S-2302 at a concentration equal the to the experimentally derived KM. Kinetic readings at 405 nm were monitored every 12 secs for a total duration of 3 hours at 37° C. Gradients of initial rates were determined and employed to calculate IC50 values.
The activity of the compounds of the invention has been categorised based on the Ki values, the categories being “†”, “*”, “**” and “***”. […] The category “**” refers to compounds with a Ki value of 0.2 μM to 0.8 μM.
(§3) Ki═IC50/(1+[Substrate]/Km)
(§4) Where [Substrate] denotes the concentration of substrate used in the assay and Km is the determined value of each enzyme with its own substrate.

FXa = FXa (Homo sapiens, UniProt P00742); experiment: Determination of selectivity: FXa inhibition (chromogenic substrate S2765); conditions: fold selectivity for FXIIa over FXa (human); category
Sequence of FXa (P00742 235-488 limits assumed): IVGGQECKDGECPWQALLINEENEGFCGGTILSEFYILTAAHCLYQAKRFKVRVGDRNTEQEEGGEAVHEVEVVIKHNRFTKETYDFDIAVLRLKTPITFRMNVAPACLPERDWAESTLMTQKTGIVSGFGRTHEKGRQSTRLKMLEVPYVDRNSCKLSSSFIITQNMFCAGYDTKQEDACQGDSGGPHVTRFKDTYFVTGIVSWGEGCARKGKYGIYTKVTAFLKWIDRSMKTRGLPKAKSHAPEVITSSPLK
Sequence of FXa (P00742 41-179 partner limits assumed): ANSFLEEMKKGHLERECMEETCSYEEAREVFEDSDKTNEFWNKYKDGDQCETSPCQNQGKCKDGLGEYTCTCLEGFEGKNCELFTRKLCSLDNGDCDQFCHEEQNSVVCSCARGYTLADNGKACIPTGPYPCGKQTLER
Description: as §1, §2
(§5) To determine selectivity of test compounds, these test compounds were assayed for inhibitory activity against other serine proteases including FXa and thrombin. Essentially compounds at increasing concentrations were incubated with each enzyme: FXa (5 nM) and thrombin (5 nM), for 10 mins at 37° C. followed by the appropriate chromogenic substrate, S2765 (Chromogenix) and GPR (Bachem) respectively in 50 mM Tris, 137 mM NaCl, pH 7.4. Substrates were used at a concentration equal to the appropriate experimentally derived KM. Kinetic readings at 405 nm were monitored every 12 secs for a total duration of 3 hours at 37° C. Gradients of initial rates were determined and employed to calculate IC50 values. Values of IC50 were converted to Ki values based on the formula:
as §3, §4
The fold selectivity for FXIIa over FXa for the compounds of the invention has been categorised based on the fold selectivity values, the categories being “o”, “oo” and “ooo”. The category “o” refers to fold selectivity values less than 10 (e.g. a fold selectivity value of less than 10 and greater than 1). The category “oo” refers to a fold selectivity value of 10 to 100. The category “ooo” refers to fold selectivity values greater than 100.

thrombin = target: T2, thrombin (Homo sapiens, UniProt P00734); experiment: Determination of selectivity: thrombin inhibition (chromogenic substrate GPR); conditions: fold selectivity for FXIIa over thrombin (human); category
T2 construct: FXa (5 nM) and thrombin (5 nM)
Description: as §1, §2, §5, §3, §4
The fold selectivity for FXIIa over thrombin for the compounds of the invention has been categorised based on the fold selectivity values, the categories being “+”, “++” and “+++”. The category “+” refers to fold selectivity values less than 10 (e.g. a fold selectivity value of less than 10 and greater than 1). The category “++” refers to a fold selectivity value of 10 to 100. The category “+++” refers to fold selectivity values greater than 100.

| Structure (SMILES) | Ki (FXIIa) [nM] | FXa (human)/FXIIa alpha (human) (FXa) | Thrombin (human)/FXIIa alpha (human) (thrombin) |
| --- | --- | --- | --- |
| Cc1ccc2c(c1)CCN2C1C[C@@H](C(=O)NCc2ccc3c(cnn3C)c2)N(C(=O)[C@@H]2NCCC[C@@H]2C(=O)N2CCCC2)C1 (single isomer, unassigned) [Example M05838] | 200 to 800 | ∘∘∘ | +++ (fold selectivity values greater than 100) |
| Cc1ccc2c(c1)CCN2C1C[C@@H](C(=O)NCc2ccc3c(cnn3C)c2)N(C(=O)[C@@H]2NCCC[C@@H]2C(=O)N2CCCC2)C1 (single isomer, unassigned) [Example M05839] | 200 to 800 | ∘∘∘ | +++ (fold selectivity values greater than 100) |
| Cc1ccc(C=C2C[C@@H](C(=O)NCc3ccc4c(cnn4C)c3)N(C(=O)[C@@H]3NCCC[C@@H]3C(=O)N3CCCC3)C2)cc1 (single isomer, unassigned) [Example M05843] | 200 to 800 | ∘∘∘ | +++ (fold selectivity values greater than 100) |
| Cc1ccc(C=C2C[C@@H](C(=O)NCc3ccc4c(cnn4C)c3)N(C(=O)[C@@H]3NCCC[C@@H]3C(=O)N3CCCC3)C2)cc1 (single isomer, unassigned) [Example M05844] | 800 to 5000 | ∘∘ | ++ (a fold selectivity value of 10 to 100) |
| Cc1ccc(C[C@@H]2C[C@@H](C(=O)NCc3ccc4c(cnn4C)c3)N(C(=O)[C@@H]3NCCC[C@@H]3C(=O)N(C)CCN(C)C)C2)cc1 (single isomer, unassigned) [Example M05902] | < 200 | ∘∘∘ | +++ (fold selectivity values greater than 100) |
| Cn1nnc2cc(CNC(=O)[C@@H]3C[C@@H](CC4CCC5(CC4)CC5)CN3C(=O)[C@@H]3NCCC[C@@H]3C(=O)N3CCCC3)ccc21 [Compound M06003] | 200 to 800 | ∘∘∘ | +++ (fold selectivity values greater than 100) |
| COc1ccc(C[C@@H]2C[C@@H](C(=O)NCc3cc4cnccc4[nH]3)N(C(=O)[C@@H]3NCCC[C@@H]3C(=O)N3CCCC3)C2)cc1 [Example M00466, (2S,4R)-N-((1H-pyrrolo[3,2-c]pyridin-2-yl)methyl)-4-(4-mthoxybenzyl)-1-((2R,3S)-3-(pyrrolidine-1-carbonyl)piperidine-2-carbonyl)pyrrolidine-2-carboxamide] | < 200 | ∘∘∘ | +++ (fold selectivity values greater than 100) |
| COc1ccc(C[C@@H]2C[C@@H](C(=O)NCc3cc4cnccc4[nH]3)N(C(=O)[C@@H]3NCCC[C@@H]3C(=O)N3CCCC3(C)C)C2)cc1 [Example M00467] | < 200 | ∘∘ | + (fold selectivity values less than 10 (e.g. a fold selectivity value of less than 10 and greater than 1)) |
| COc1ccc(C[C@@H]2C[C@@H](C(=O)NCc3ccc4c(c3)nnn4C)N(C(=O)[C@@H]3NCCC[C@@H]3C(=O)N3CCCC3)C2)cc1 [Example M04490] | < 200 | ∘∘∘ | +++ (fold selectivity values greater than 100) |
| Cc1ccc(C[C@@H]2C[C@@H](C(=O)NCc3ccc4c(cnn4C)c3)N(C(=O)[C@@H]3NCCC[C@@H]3C(=O)N3CCCC3)C2)cc1 [Example M05675, (2S,4R)-N-((1-methyl-1H-indazol-5-yl)methyl)-4-(4-methylbenzyl)-1-((2R,3S)-3-(pyrrolidine-1-carbonyl)piperidine-2-carbonyl)pyrrolidine-2-carboxamide] | < 200 | ∘∘∘ | +++ (fold selectivity values greater than 100) |
| Cc1ccc(C[C@@H]2C[C@@H](C(=O)NCc3cc4cncc(F)c4[nH]3)N(C(=O)[C@@H]3NCCC[C@@H]3C(=O)N3CCCC3)C2)cc1 [Example M05712, (2S,4R)-N-((7-fluoro-1H-pyrrolo[3,2-c]pyridin-2-yl)methyl)-4-(4-methylbenzyl)-1-((2R,3S)-3-(pyrrolidine-1-carbonyl)piperidine-2-carbonyl)pyrrolidine-2-carboxamide] | 200 to 800 | ∘∘∘ | +++ (fold selectivity values greater than 100) |
| Cn1ncc2cc(CNC(=O)[C@@H]3C[C@@H](Cc4ccn(C5CC5)n4)CN3C(=O)[C@@H]3NCCC[C@@H]3C(=O)N3CCCC3)ccc21 [Example M05983, (2S,4S)-4-((1-cyclopropyl-1H-pyrazol-3-yl)methyl)-N-((1-methyl-1H-indazol-5-yl)methyl)-1-((2R,3S)-3-(pyrrolidine-1-carbonyl)piperidine-2-carbonyl)pyrrolidine-2-carboxamide] | 800 to 5000 | ∘∘∘ |  |
| Cc1ccc(C[C@@H]2C[C@@H](C(=O)NCc3ccn4c(C(F)F)nnc4c3)N(C(=O)[C@@H]3NCCC[C@@H]3C(=O)N3CCCC3)C2)cc1 [Example M05985, (2S,4R)-N-[[3-(difluoromethyl)-[1,2,4]triazolo[4,3-a]pyridin-7-yl]methyl]-4-(p-tolylmethyl)-1-[(2R,3S)-3-(pyrrolidine-1-carbonyl)piperidine-2-carbonyl]pyrrolidine-2-carboxamide] | 800 to 5000 |  |  |
| Cn1nnc2cc(CNC(=O)[C@@H]3C[C@@H](Cc4ccc(C5(F)CC5)cc4)CN3C(=O)[C@@H]3NCCC[C@@H]3C(=O)N3CCCC3)ccc21 [Example M06068, (2S,4R)-4-[[4-(1-fluorocyclopropyl)phenyl]methyl]-N-[(1-methylbenzotriazol-5-yl)methyl]-1-[(2R,3S)-3-(pyrrolidine-1-carbonyl)piperidine-2-carbonyl]pyrrolidine-2-carboxamide] | 800 to 5000 | ∘∘∘ |  |
| Cn1nnc2cc(CNC(=O)[C@@H]3C[C@@H](Cc4ccc(C5CC5)nc4)CN3C(=O)[C@@H]3NCCC[C@@H]3C(=O)N3CCC[C@@H]3C(F)(F)F)ccc21 [Example M06070, (2S,4R)-4-[(6-cyclopropyl-3-pyridyl)methyl]-N-[(1-methylbenzotriazol-5-yl)methyl]-1-[(2R,3S)-3-[(2R)-2-(trifluoromethyl)pyrrolidine-1-carbonyl]piperidine-2-carbonyl]pyrrolidine-2-carboxamide] | 200 to 800 | ∘∘∘ |  |
| Cc1ccc(C[C@@H]2C[C@@H](C(=O)NCCCc3cnn(C)c3)N(C(=O)[C@@H]3NCCC[C@@H]3C(=O)N3CCC[C@@H]3C(F)(F)F)C2)cc1 [Example M06077] | 800 to 5000 |  |  |
